Results as given in ChEMBL document CHEMBL1201862, “PubChem BioAssay data set” (2004).
The source made the active and inactive calls.

What was measured:
Cryptococcus neoformans = assay: PubChem AID 686997; assay type: functional, organism-based
[1] = biological target: G-protein coupled receptor 55 (Homo sapiens, UniProt Q9Y2T6); assay: GPR55 antagonists blocking LPI-driven arrestin recruitment, primary screen, imaging, U2OS, beta-arrestin-GFP, LPI agonist (AID 2013); assay type: functional;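 further: antagonist potency measured as reduced agonist-driven arrestin aggregation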
Chain of G-protein coupled receptor 55 (Q9Y2T6 whole entry): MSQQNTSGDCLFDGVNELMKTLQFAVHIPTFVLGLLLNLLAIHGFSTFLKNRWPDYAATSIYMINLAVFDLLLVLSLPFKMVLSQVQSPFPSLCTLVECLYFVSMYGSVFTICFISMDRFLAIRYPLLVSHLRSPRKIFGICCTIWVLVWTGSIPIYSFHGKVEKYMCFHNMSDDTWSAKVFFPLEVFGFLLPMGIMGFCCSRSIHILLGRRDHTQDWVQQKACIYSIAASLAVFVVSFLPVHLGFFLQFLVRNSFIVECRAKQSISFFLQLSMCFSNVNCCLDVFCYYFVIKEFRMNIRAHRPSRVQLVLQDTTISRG

[2] = biological target: T1, Microphthalmia-associated transcription factor (Homo sapiens, UniProt O75030); assay: TRPM1 promoter luciferase signal decrease, dose response, MITF inhibitor project, cell-based, SK-MEL-5, cherry-picked, set 3 (AID 493073); assay type: functional
T1 sequence (O75030 whole entry): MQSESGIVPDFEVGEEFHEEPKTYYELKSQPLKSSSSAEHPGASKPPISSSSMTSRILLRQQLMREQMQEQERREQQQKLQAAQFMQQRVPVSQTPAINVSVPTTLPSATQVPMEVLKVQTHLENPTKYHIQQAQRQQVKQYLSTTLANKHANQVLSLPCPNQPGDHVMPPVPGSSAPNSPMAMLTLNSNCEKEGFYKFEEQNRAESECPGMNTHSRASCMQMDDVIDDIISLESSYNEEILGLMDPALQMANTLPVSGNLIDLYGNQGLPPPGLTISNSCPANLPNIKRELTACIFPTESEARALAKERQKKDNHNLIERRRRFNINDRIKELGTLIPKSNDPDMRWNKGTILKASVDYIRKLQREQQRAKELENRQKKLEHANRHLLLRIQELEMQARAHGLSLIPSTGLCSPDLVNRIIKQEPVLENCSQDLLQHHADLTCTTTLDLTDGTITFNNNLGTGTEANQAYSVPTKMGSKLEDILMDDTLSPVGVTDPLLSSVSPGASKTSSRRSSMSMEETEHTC

[3] = cytotoxicity toward DRD oncogenic fibroblasts, dose response, cell-based, non-viral oncogenic, luminescence (AID 1934); assay type: functional; conditions: Homo sapiens
Protein RecA = biological target: T2, Protein RecA (Mycobacterium tuberculosis, UniProt P9WHJ3); assay: Fluorescence Cell-Free Homogeneous Dose Retest to Identify Inhibitors of RecA-Intein Splicing Activity. [Related pubchem assays (depositor defined):AID2097, AID2223, AID489010, AID492950]; assay type: functional
T2 sequence (P9WHJ3 whole entry): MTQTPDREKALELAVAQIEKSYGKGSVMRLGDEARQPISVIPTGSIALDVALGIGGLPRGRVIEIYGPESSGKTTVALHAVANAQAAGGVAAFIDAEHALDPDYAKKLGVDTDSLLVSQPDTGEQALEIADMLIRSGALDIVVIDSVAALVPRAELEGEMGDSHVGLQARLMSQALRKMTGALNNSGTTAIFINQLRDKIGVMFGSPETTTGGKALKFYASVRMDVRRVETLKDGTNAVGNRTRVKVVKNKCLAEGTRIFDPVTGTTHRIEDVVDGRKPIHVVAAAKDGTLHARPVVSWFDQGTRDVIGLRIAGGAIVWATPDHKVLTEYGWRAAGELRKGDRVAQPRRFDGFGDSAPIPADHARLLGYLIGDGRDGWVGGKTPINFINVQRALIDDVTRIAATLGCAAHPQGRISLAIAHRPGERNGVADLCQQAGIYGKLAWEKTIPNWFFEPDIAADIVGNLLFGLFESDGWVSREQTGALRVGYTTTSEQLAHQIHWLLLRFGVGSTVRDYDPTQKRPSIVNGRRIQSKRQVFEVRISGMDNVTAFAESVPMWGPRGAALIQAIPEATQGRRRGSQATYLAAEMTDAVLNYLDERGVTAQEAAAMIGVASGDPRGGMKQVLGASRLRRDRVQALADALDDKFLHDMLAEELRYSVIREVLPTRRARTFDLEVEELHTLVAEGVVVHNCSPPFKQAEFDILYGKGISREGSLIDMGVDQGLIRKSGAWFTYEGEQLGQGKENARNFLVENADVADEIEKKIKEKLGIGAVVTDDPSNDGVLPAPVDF

[4] = biological target: Glutathione S-transferase omega-1 (Homo sapiens, UniProt P78417); assay: GSTO1 inhibitor potency, recombinant enzyme, late-stage follow-up, biochemical, SE-Rh probe, in-gel fluorescence, powder samples (AID 463081); assay type: functional
Chain of Glutathione S-transferase omega-1 (P78417 whole entry): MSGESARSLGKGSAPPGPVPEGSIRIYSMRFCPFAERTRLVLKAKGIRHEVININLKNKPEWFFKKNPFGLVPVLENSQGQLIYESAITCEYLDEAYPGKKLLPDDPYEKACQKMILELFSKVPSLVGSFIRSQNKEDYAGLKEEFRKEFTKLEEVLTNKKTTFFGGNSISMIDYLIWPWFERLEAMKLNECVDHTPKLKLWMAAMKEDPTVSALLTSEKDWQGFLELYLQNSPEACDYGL

BJ [5] = assay: cytotoxicity toward BJ-TERT fibroblasts, dose response, cell-based, RAS-independent, luminescence (AID 1933); assay type: functional; conditions: Homo sapiens
BJ [6] = assay: cytotoxicity toward BJ-TERT-LT-ST fibroblasts, dose response, cell-based, RAS-independent, luminescence (AID 1935); assay type: functional; conditions: Homo sapiens;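 further: BJ fibroblasts immortalized with TERT plus LT and ST oncogenes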
[7] = Intein inhibitors as potential Tuberculosis drugs, a cytotoxicity screen. [Related pubchem assays (depositor defined):AID2221, AID2223, AID434968, AID435010, AID449749, AID449750, AID489010]; assay type: functional
BJ [8] = assay: cells; assay type: functional, cell-based; conditions: Homo sapiens
[9] = biological target: T3, Replicative DNA helicase DnaB (Mycobacterium tuberculosis, UniProt P9WMR3); assay: DnaB intein splicing inhibitors, dose response, biochemical, cell-free fluorescence (AID 449749); assay type: functional
T3 sequence (P9WMR3 whole entry): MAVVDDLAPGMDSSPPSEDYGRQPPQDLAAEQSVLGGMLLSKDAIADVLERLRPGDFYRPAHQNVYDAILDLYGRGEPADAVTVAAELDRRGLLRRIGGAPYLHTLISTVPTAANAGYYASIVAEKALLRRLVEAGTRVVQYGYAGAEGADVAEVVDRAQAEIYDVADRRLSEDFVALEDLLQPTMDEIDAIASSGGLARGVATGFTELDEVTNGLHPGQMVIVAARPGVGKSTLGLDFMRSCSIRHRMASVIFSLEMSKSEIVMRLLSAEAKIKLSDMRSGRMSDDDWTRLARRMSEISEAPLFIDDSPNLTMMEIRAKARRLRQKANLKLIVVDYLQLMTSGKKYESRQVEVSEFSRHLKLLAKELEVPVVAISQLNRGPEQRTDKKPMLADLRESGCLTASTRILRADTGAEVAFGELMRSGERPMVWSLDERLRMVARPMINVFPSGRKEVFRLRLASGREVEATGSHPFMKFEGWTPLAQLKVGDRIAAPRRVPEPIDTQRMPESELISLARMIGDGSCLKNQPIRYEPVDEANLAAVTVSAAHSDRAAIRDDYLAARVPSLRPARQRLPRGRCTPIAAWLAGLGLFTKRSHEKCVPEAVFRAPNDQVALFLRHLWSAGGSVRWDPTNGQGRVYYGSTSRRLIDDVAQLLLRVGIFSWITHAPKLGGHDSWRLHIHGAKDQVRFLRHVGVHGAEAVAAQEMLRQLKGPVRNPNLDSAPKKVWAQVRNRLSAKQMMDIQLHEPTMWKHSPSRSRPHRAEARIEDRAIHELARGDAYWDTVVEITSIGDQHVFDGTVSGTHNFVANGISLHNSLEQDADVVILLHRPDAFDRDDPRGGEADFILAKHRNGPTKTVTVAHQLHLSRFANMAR

HEK293 [10] = assay: cells; assay type: functional, cell-based; conditions: Homo sapiens
HEK293 [11] = assay: cells; conditions: Homo sapiens
HEK293 [12] = assay: NOD2 signaling inhibitors in MDP-stimulated cells, cell-based, uHTS, luminescence (AID 2001); assay type: functional; conditions: Homo sapiens
HEK293 [13] = assay: cells; assay type: functional, cell-based; conditions: Homo sapiens; remark: listed apart in the source
Tumor necrosis factor = Tumor necrosis factor (Homo sapiens, UniProt P01375); assay: TNFa-triggered NF-kB activation inhibitors, SAR follow-up, cell-based, revised (AID 2337); assay type: functional
Chain of Tumor necrosis factor (P01375 whole entry): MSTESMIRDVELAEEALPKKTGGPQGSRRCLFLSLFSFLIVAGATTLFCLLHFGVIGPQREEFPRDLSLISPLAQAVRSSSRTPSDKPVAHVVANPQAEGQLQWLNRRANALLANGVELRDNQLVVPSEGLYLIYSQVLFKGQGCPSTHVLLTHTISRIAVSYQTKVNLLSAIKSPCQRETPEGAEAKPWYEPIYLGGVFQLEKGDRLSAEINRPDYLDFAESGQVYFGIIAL

HEK293 [14] = assay: NOD1 signaling inhibitors, primary screen, cell-based, luminescence, uHTS (AID 1578); assay type: functional; conditions: Homo sapiens
[15] = biological target: T4, Nucleotide-binding oligomerization domain-containing protein 1 (Homo sapiens, UniProt Q9Y239); assay: NOD1 signaling inhibitors, SAR follow-up, revised (AID 2333); assay type: functional
T4 sequence (Q9Y239 whole entry): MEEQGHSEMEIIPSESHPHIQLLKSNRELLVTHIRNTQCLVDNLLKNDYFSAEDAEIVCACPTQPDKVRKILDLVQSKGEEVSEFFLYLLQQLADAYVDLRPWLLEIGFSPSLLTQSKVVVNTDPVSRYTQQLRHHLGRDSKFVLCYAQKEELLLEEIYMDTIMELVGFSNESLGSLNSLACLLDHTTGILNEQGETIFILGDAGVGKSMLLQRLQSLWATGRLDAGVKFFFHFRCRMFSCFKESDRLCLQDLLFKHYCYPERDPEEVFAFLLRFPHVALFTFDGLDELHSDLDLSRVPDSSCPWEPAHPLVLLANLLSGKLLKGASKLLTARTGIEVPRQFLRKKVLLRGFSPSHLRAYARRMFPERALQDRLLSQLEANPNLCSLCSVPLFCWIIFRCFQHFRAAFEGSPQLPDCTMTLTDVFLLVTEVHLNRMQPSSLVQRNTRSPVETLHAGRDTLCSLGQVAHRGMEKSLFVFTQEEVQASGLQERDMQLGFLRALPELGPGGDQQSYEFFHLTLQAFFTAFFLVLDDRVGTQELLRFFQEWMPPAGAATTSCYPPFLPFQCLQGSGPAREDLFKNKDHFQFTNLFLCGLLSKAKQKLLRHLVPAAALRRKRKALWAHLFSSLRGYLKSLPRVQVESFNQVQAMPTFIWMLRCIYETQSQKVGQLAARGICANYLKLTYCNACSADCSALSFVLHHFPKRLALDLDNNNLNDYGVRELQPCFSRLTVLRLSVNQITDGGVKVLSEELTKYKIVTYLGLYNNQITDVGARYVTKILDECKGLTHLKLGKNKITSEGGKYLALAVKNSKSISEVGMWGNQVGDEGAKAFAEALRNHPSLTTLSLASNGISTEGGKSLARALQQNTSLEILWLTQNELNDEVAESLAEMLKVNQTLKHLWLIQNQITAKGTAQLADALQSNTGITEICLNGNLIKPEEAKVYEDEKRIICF

[16] = biological target: Nucleotide-binding oligomerization domain-containing protein 2 (Homo sapiens, UniProt Q9HC29); assay: NOD2 signaling inhibitors, cell-based, luminescence, uHTS, HEK293 (AID 1566); assay type: functional
Chain of Nucleotide-binding oligomerization domain-containing protein 2 (Q9HC29 whole entry, the tested form may be a part): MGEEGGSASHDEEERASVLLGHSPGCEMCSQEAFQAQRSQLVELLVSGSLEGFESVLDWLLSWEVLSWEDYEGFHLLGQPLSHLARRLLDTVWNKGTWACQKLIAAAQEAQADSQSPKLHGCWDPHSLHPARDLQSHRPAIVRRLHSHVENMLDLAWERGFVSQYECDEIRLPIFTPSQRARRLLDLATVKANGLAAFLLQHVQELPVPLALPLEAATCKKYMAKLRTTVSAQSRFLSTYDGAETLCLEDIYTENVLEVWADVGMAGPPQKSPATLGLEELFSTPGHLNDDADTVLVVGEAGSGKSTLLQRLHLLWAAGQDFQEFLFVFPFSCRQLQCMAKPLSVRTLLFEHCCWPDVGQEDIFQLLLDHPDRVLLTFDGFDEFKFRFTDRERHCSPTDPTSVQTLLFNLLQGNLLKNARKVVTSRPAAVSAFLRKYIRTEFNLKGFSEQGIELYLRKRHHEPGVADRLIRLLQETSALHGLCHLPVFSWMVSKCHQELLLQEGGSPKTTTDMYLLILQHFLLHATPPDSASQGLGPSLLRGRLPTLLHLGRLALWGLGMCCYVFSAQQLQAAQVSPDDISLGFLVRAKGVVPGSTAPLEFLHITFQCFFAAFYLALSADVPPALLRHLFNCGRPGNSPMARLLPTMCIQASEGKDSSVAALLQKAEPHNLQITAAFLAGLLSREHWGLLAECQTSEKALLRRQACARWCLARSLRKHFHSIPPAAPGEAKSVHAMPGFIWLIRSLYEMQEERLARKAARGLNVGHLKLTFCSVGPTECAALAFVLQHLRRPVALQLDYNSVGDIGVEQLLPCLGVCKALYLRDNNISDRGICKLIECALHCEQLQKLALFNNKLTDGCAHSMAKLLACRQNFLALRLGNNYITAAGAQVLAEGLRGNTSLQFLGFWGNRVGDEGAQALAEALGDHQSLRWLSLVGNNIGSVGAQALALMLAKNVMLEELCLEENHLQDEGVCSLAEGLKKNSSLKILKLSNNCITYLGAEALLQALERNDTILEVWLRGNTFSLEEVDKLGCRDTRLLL

HEK293 [17] = assay: cells; assay type: functional, cell-based; conditions: Homo sapiens; remark: listed apart in the source
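Wherever CC50 is given: cells exposed to compound for 72 hours before luminescence readout.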

S=C(Nc1ccc(Cl)cc1Cl)Nc1ccccc1Oc1ccccc1
AC50 (Cryptococcus neoformans): 44.9 µM (active) | IC50 [1]: 4.08 µM (active)

O=C(NC1CCCCC1)C(c1cccnc1)N(C(=O)CCl)c1cccc(Cl)c1 (stereo not given)
AC50 [2]: 4.16 µM (active) | EC50 [3]: 2.77 µM (active) | EC50 (Protein RecA): 467 nM (active) | IC50 [4]: 38 nM (active) | EC50 (BJ [5]): 349 nM (active) | EC50 (BJ [6]): 7.06 µM (inconclusive) | CC50 [7]: 820 nM (active) | EC50 (BJ [8]): 5.05 µM (active) | AC50 [9]: 3.23 µM (active)

COc1ccc(N2CCN(C(=O)c3ccc(CNS(=O)(=O)c4ccc(C)cc4)cc3)CC2)cc1
IC50 (HEK293 [10]): 17.5 µM (active) | IC50 (HEK293 [11]): > 20 µM (inactive) | IC50 (HEK293 [12]): 12.5 µM (inactive) | IC50 (HEK293 [13]): 10.1 µM (active) | IC50 (Tumor necrosis factor): > 20 µM (inactive) | EC50 (HEK293 [14]): 7.09 µM (active) | IC50 [15]: > 20 µM (inactive) | EC50 [16]: > 20 µM (inactive) | IC50 (HEK293 [17]): > 20 µM (inactive)
